Each block holds one compound with its values, some of them ahead of it.
What was measured:
insulin receptor [1] = biological target: T1, insulin receptor (Homo sapiens, UniProt P06213); experiment: Effect of insulin signaling blockers on insulin-stimulated insulin receptor phosphorylation; assay type: cell-based
Text: These assays are validated via the use of control compounds such as insulin signaling and receptor antagonists and insulin sensitizers.

insulin receptor [2] = biological target: T1, insulin receptor; experiment: ADDL breakdown by cells over expressing human insulin receptor; assay type: cell-based; design: expressed in transfected cells; conditions: inhibition of insulin receptor
[3] = tested on: cultured cortical neurons; experiment: ADDL uptake in cultured cortical neurons (western blot of medium, immunoprecipitation of lysates); assay type: cell-based
Experimental: Primary cortical cultures were prepared from 1-day old pups and maintained in serum-free neurobasal A medium complemented with 2% B-27, […] L-glutamine and 5 μg/mL bFGF. Synthetic oligomeric Aβ peptide assemblies (100 nM) were applied to cultured cortical neurons and incubated at 37° C. for 30 minutes. […] After separation on SDS-PAGE, the precipitated oligomeric Aβ peptide assemblies were detected on western blots with 6E10 antibody. The bar graph (mean±SE) summarizes data from four independent replicated treatments.
(§1) ADDL Uptake and Clearance by Neurons Occurs Via Insulin Receptor Signaling. […] Extracellular ADDL levels were measured on western blots using a concentrated medium. […] On the other hand, the intracellular ADDLs were detected by immunoprecipitation (FIG. 2B). […] This uptake, however, was prevented by […] (FIG. 2B, lane 5, 6).

[4] = tested on: cells over-expressing insulin receptor; experiment: ADDL uptake and clearance by cells over-expressing insulin receptor; assay type: cell-based
Text: The amount of oligomeric Aβ peptide assemblies present in cell lysates and culture medium is presented.
Total ADDL levels were higher than other treatment conditions. […] In the presence of insulin, ADDLs were internalized and detected in the center of the intracellular compartment. In the presence of AG1024, the majority of ADDLs were retained in the extracellular compartment.

insulin receptor [5] = biological target: T2, insulin receptor (Rattus norvegicus, UniProt P15127); experiment: Insulin receptor tyrosine phosphorylation in hippocampal neuronal cultures; assay type: cell-based; design: endogenous in cells; host or cells: rat primary hippocampal and cortical neuronal cultures; conditions: for insulin-stimulated insulin receptor tyrosine phosphorylation: ADDLs with 100 nM insulin; for insulin-stimulated insulin receptor tyrosine phosphorylation / tyrosine phosphorylation of the insulin receptor: hippocampal neurons; for tyrosine phosphorylation of the insulin receptor: substance alone
Experimental: The insulin receptor was immunoprecipitated by an antibody against the β subunit of the insulin receptor. The precipitated proteins were then detected on separate western blots by an anti-phosphotyrosine antibody and an anti-insulin receptor β subunit antibody, respectively. The ratio of phosphorylated and regular receptors was calculated after densitometry scan and compared among different treatments.
(§2) The tyrosine phosphorylation extent of insulin receptor was examined by precipitating insulin receptor with anti-insulin receptor antibody followed by blotting with anti-pTyr antibody on western blots.
(§3) Upon termination of the reaction, the extracellular medium was removed and cell lysates were prepared with a lysis buffer. The tyrosine phosphorylation of insulin receptor was assessed by immunoprecipitation of insulin receptor with a specific anti-insulin receptor antibody, followed by blotting the precipitated receptor with an anti-tyrosine antibody.

insulin receptor [6] = biological target: T1, insulin receptor; conditions: cited from earlier work
Akt [7] = experiment: Akt ser473 phosphorylation in cortical neurons; assay type: cell-based; conditions: 6 hours
Text: (§4) Equalized total amount of protein from soluble cell lysates were separated on SDS-PAGE, and pAkt ser473 detected on western blots with a specific antibody against pAkt ser473. Identical samples transferred to a separate membrane were detected with an anti-total Akt (rAkt) antibody for internal normalization. The normalized pAkt extent from each experimental condition was converted to percent control and analyzed with one-way ANOVA, **P<0.01.
(§5) In the presence ADDLs, however, there was an increase in pAkt ser473. […] To test whether inhibition of phosphatase 2A (PP2A) causes a similar enhancement of pAkt ser473, the cortical neurons were pre-treated with okadaic acid (OA), a potent PP2A/PP1 inhibitor at a concentration (10 nM) preferentially inhibiting PP2A.

IRS1 = IRS1 serine307 phosphorylation in hippocampal neuronal cultures; assay type: cell-based; conditions: 150 nM ADDLs, 60 minutes
Text: Equal amount of total proteins from soluble cell lysates from each condition was separated on SDS-PAGE and transferred to nitrocellulose membranes. The phosphorylation extent of IRS1 Ser307 was detected with an anti-IRS1 PSer307 antibody. Identical samples on a separate membrane were blotted with an anti-total amount of IRS1 (rIRS1). The immunoreactivities of pIRS1(Ser307) were normalized with those of rIRS1. Values from each experimental group were converted to percent control and analyzed with one-way ANOVA, ***p<0.0001; **p<0.01.

MAP kinase = experiment: Insulin-induced MAP kinase phosphorylation; assay type: cell-based; conditions: ADDL treatment
Text: Identified herein is a signaling loop in which molecular pathology of AD and type II diabetes can be interconnected.

Akt [8] = experiment: Akt ser473 phosphorylation in hippocampal neurons; assay type: cell-based; conditions: 1 hour post-ADDL/INS treatment
Text: as §4, §5

insulin receptor [9] = biological target: T2, insulin receptor; experiment: Insulin receptor tyrosine phosphorylation in cortical neuronal cultures; assay type: cell-based; design: endogenous in cells; host or cells: rat primary hippocampal and cortical neuronal cultures; conditions: cortical neurons
Experimental: as §2, §3

hippocampal neurons [10] = experiment: MTT cell viability assay after ADDL/insulin treatment; assay type: cell-based
insulin receptor [11] = biological target: T2, insulin receptor; experiment: Serine phosphorylation of insulin receptor in hippocampal neurons; assay type: cell-based; design: endogenous in cells; host or cells: rat primary hippocampal and cortical neuronal cultures; conditions: 150 nM ADDLs, 60 minutes
Experimental: The cell lysates were subjected to immunoprecipitation using an anti-insulin receptor antibody. The precipitated insulin receptors were analyzed by western blot with an anti-phosphoserine antibody to detect the serine phosphorylation extent of insulin receptor (pSer-IR). The pSer-IR extent was normalized with the total amount of precipitated insulin receptor. Each condition was converted to percent control before analyzed one-way ANOVA, **p<0.01.

insulin receptor [12] = biological target: T1, insulin receptor; experiment: Ligand blotting of ADDLs to precipitated insulin receptor; assay type: binding; design: expressed in transfected cells; conditions: 100 nM ADDLs; receptors from cells with and without insulin treatment
Text: The cell lysates were subjected to co-immunoprecipitation, in which a specific anti-ADDL antibody (20C2) was used to precipitated ADDLs and proteins that complexed with ADDLs. This was followed by detection of insulin receptor from precipitated proteins on a western blot. […] To test whether the ADDL-insulin receptor interaction is direct, the human insulin receptors from insulin receptor expressing cells with and without insulin treatment were precipitated with an anti-insulin receptor antibody.

insulin receptor [13] = biological target: T2, insulin receptor; experiment: Insulin receptor (IRα) immunofluorescence in mature hippocampal neurons after ADDL treatment; assay type: cell-based; design: endogenous in cells; host or cells: cultures of mature hippocampal neurons; conditions: 100 nM ADDLs, 30 minutes
Experimental: ADDLs were added to cultures at 100 nM and incubated for 30 minutes to allow for complete binding. […] Insulin receptors, identified using antibodies against the outward-directed alpha sub-unit, also distributed in a punctate manner.
To investigate whether ADDLs cause IR impairment, changes in neuronal IR levels following ADDL treatment were analyzed. […] To detect neuronal surface IR, an antibody recognizing the alpha subunit of IR (IRα) localized on the extracellular membrane layer. Abundant IRα immunoreactivity was detected in cultured hippocampal neurons, which was particularly concentrated on the membrane of soma and dendrites. After treated with 100 nM ADDLs for 30 minutes, however, there was a drastic change in IRα immunostaining pattern with a substantial reduction of IRα from dendrites but an increase in the cell body. […] The increased cytosolic IRα immunoreactivity implicates internalization of the receptor. Loss of IRα occurred specifically to ADDL attacked dendrites. […] Similar to the above experiment, ADDLs were added to cultures at 100 nM and incubated for 30 minutes to allow for complete binding.
The down-regulation of IR is likely due to internalization the receptor by ADDLs.

hippocampal neurons [14] = experiment: ADDL binding to hippocampal neurons after insulin pre-incubation; assay type: cell-based; conditions: for prevention of ADDL binding to hippocampal neurons: then 100 nM ADDLs
Text: This possibility seems unlikely, however, given the abundance of insulin receptors in cell bodies of ADDL-exposed neurons.

hippocampal neurons [15] = experiment: ADDL uptake in hippocampal neurons; assay type: cell-based
Experimental: as §1

[16] = cells pretreated with inhibitor before ADDL and insulin

T2 sequence (P15127 27-759 limits assumed): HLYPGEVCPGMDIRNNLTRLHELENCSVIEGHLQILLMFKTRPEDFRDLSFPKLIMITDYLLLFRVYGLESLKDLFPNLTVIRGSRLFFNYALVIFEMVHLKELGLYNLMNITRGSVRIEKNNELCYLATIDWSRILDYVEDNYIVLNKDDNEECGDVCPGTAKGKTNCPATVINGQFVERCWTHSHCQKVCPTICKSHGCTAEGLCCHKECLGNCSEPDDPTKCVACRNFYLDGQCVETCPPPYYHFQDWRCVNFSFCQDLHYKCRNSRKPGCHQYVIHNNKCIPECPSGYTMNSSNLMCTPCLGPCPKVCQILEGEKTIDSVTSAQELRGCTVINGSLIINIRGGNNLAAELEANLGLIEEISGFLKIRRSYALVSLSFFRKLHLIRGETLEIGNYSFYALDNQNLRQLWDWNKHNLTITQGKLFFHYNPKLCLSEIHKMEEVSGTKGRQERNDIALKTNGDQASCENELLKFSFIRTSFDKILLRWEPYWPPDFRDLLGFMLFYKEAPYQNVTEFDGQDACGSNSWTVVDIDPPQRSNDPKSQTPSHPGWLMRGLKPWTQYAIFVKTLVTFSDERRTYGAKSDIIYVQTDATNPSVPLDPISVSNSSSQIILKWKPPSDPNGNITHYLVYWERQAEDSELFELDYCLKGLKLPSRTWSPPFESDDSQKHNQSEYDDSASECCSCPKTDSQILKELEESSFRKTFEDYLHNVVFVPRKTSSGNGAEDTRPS
T2 sequence (P15127 764-1383 limits assumed): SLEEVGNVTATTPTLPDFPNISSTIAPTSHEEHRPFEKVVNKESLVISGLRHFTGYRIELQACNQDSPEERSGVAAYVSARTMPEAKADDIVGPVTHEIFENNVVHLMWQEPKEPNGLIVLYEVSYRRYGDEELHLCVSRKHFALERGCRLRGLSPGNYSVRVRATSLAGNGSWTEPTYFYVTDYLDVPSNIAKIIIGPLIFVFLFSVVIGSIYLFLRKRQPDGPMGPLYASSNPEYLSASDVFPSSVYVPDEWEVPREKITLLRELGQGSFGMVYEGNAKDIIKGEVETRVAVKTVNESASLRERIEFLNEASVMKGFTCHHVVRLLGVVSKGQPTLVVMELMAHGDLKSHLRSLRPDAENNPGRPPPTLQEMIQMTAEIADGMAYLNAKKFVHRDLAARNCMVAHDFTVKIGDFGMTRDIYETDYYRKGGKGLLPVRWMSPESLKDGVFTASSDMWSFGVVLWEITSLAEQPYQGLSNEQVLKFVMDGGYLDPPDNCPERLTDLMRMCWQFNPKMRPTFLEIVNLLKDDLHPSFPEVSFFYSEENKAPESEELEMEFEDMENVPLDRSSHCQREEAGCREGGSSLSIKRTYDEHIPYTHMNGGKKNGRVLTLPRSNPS

Compound: CC(C)(C)c1cc(C=C(C#N)C#N)cc(Br)c1O [AG1024, tyrphostin AG1024]
insulin-stimulated insulin receptor phosphorylation (insulin receptor [1]): significantly inhibited | ADDLs in the extracellular medium (insulin receptor [2]): striking accumulation of ADDLs in the extracellular medium | ADDLs in the extracellular medium ([3]; 100 nM synthetic ADDLs, 37° C., 30 minutes): striking aggregation of ADDLS | insulin-induced ADDL uptake into cell lysate ([3]; inhibitor included prior to ADDL treatment): prevented | ADDL aggregates in the extracellular medium [4, 16]: markedly higher amount of ADDL aggregates in the extracellular medium | insulin-stimulated ADDL internalization [4, 16]: prevented

Compound: CC(=O)OCOC(=O)CN(CC(=O)OCOC(C)=O)c1ccccc1OCCOc1ccccc1N(CC(=O)OCOC(C)=O)CC(=O)OCOC(C)=O [BAPTA-AM, 1,2-bis(o-aminophenoxy)ethane-N,N,N′,N′-tetraacetic acid tetra(acetoxymethyl)ester]
ADDL inhibition of insulin-stimulated IR tyrosine phosphorylation under chelation of intracellular Ca2+ (insulin receptor [5]; 100-150 nM ADDLs, neuronal depolarization and glutamate stimulation): could be rescued

Compound: CN(C)C(=N)N=C(N)N [Metformin]
tyrosine kinase activity of the insulin receptor (insulin receptor [6]): enhance the tyrosine kinase activity of the insulin receptor

insulin-stimulated insulin receptor phosphorylation (insulin receptor [1]): significantly inhibited
Compound: O.O=C([O-])c1ccccc1-c1c2cc(I)c(=O)c(I)c-2oc2c(I)c([O-])c(I)cc12.[Na+].[Na+] [erythrosin B]

Compound: C=C1[C@@H](O)[C@@H]2O[C@]3(CC[C@H](/C=C/[C@@H](C)[C@@H]4CC(C)=C[C@@]5(O[C@H](C[C@@](C)(O)C(=O)O)CC[C@H]5O)O4)O3)CC[C@H]2O[C@@H]1[C@@H](O)C[C@H](C)[C@H]1O[C@@]2(CCCCO2)CC[C@H]1C [okadaic acid]
duration of insulin-induced increase in pAkt ser473 (Akt [7]): prolonged the insulin-increased pAkt ser473

Compound: ADDLs: neurotoxic soluble oligomeric assemblies of Aβ 1-42, prepared from synthetic Aβ 1-42 peptide
IRS-1 serine 307 phosphorylation (IRS1): increase in serine phosphorylation of IRS-1 | insulin-induced MAP kinase phosphorylation (MAP kinase): significantly inhibited | insulin-induced pAkt Ser473 (Akt [8]): enhancement of the insulin-induced pAkt Ser473 | insulin-induced insulin receptor tyrosine phosphorylation (insulin receptor [9]; ADDLs 50-150 nM with 100 nM insulin): significantly inhibited | neuronal toxicity (MTT cell viability) (hippocampal neurons [10]; ADDLs alone, varying treatment duration): cause neuronal toxicity in a treatment duration-dependent | amount of the insulin receptor (insulin receptor [5]; ADDL treatment, hippocampal neuronal cultures): reduction in the amount of the insulin receptor | insulin-stimulated insulin receptor tyrosine phosphorylation (insulin receptor [5]): significantly inhibited | insulin-stimulated insulin receptor tyrosine phosphorylation (insulin receptor [5]; listed as ADDL): abolished | insulin-stimulated insulin receptor tyrosine phosphorylation (insulin receptor [5]; listed as soluble oligomeric Aβ peptide assemblies): significant inhibition | tyrosine phosphorylation of the insulin receptor (insulin receptor [5]): increase in tyrosine phosphorylation of the insulin receptor | serine phosphorylation of insulin receptor (pSer-IR) (insulin receptor [11]): increase in serine phosphorylation of insulin receptor | duration of insulin-induced increase in pAkt ser473 (Akt [7]): significantly prolonged | binding of ADDL to insulin receptor (ligand blot) (insulin receptor [12]): strong binding of ADDL to insulin receptor was detected only in the activated but not the control insulin receptor | insulin receptor immunoreactivity in cell bodies vs ADDL-free cells (insulin receptor [13]): ~3 fold | dendritic IRα fluorescent intensity (insulin receptor [13]; P<0.01): significant loss of IRα immunoreactivity | reduction of dendritic insulin receptor immunoreactivity vs ADDL-free cells (insulin receptor [13]; image analysis): ~70%

Compound: insulin
ADDL binding and its effects (hippocampal neurons [14]; insulin 1 micromolar, 30 minutes before ADDLs): blocked | prevention of ADDL binding to hippocampal neurons (hippocampal neurons [14]; pre-incubation with 100 nM insulin): ~40% | prevention of ADDL binding to hippocampal neurons (hippocampal neurons [14]; pre-incubation with 1 μM insulin): ~70% | insulin receptor tyrosine phosphorylation (insulin receptor [9]; 100 nM insulin): marked increases in insulin receptor tyrosine phosphorylation | ADDL uptake into hippocampal neurons (hippocampal neurons [15]): stimulated a striking ADDL uptake into hippocampal neurons in a clear dose-response manner | aggregated ADDLs in the extracellular medium (hippocampal neurons [15]; hippocampal neurons): reduced aggregated ADDLs in the extracellular medium in a dose-response manner | cell viability (MTT) (hippocampal neurons [10]; ADDLs/insulin for 4 hours): no apparent toxic effects | tyrosine phosphorylation of the insulin receptor (insulin receptor [5]): marked increases in insulin receptor tyrosine phosphorylation | tyrosine phosphorylation of the insulin receptor (insulin receptor [5]; listed as Insulin): stimulated an increase in tyrosine phosphorylation | ADDL oligomers in the cell lysate fractions ([3]; 100 nM ADDLs, immunoprecipitation with 6E10): increase of ADDL oligomers | total amount of ADDLs ([4]; 100 nM ADDL with insulin, P<0.01): significantly reduced | ADDL uptake (ADDL levels in cell lysates up, extracellular medium down) ([4]; 100 nM ADDL, 100 nM insulin): stimulated ADDL uptake

Source: patent US7964359B2, “Compositions and methods for the enhancement of soluble amyloid beta oligomer (ADDL) uptake and clearance” (Acumen Pharmaceuticals, Inc., priority 2006, dated 2011)
